In patent US20210038682A1, “MODULATORS OF SMALL CONDUCTANCE CALCIUM ACTIVATED K+ CHANNELS AND PHARMACEUTICAL COMPOSITIONS FOR USE IN THE TREATMENT OF LESIONAL VESTIBULAR DISORDERS” (priority 2018, published 2021):

Columns and labels:
UVN adult female rats [1] = assay: Posturo-locomotor behavior tests (velocity, distance, immobility, meander) in the rat unilateral vestibular neurectomy model; assay type: in vivo; conditions: AG525E1 10 mg/kg i.p., from day 1
Experimental: (§1) A unilateral vestibular neurectomy (UVN) was performed on adult female rats in order to induce unilateral vestibulopathy. Then, the small conductance calcium activated K^+ channels antagonists apamin, AG525E1 and NS8593 were administered intraperitoneally to UVN animals in double blind conditions once a day for 4 days, i.e. during the acute phase of the syndrome. It was then assessed the severity of posturo-locomotor deficits using appropriate behavior tests for 10 days after UVN. Subjective scoring of the vestibular syndrome was carried out according to the method previously published (Péricat et al. 2017; Tighilet et al. 2017). […]

UVN adult female rats [2] = assay: Subjective scoring of vestibular syndrome severity in the rat unilateral vestibular neurectomy model; assay type: in vivo
Experimental: as §1

[3] = systemic administration; cited from earlier work

For `COc1cc2c(cc1OC)C(CCCC1c3cc(OC)c(OC)cc3CCN1C)N(C)CC2` (stereo not shown) [AG525E1, 1,1′-(propane-1,3-diyl)-bis-(6,7-dimethoxy-2-methyl-1,2,3,4-tetrahydroisoquinoline)], the Immobility time (UVN adult female rats [1]) was “tendency to reduce immobility time” and the Vestibular syndrome severity (UVN adult female rats [2]; AG525E1 10 mg/kg i.p. once a day for 4 days, at day 1, p<0.05 vs negative control) was “significant decreased vestibular syndrome”.
In the case of `CC(C)C[C@@H]1NC(=O)[C@H](C)NC(=O)[C@H]([C@@H](C)O)NC(=O)[C@H](CCC(=O)O)NC(=O)[C@@H]2CCCN2C(=O)[C@H](C)NC(=O)[C@H](CCCCN)NC(=O)[C@@H]2CSSC[C@@H](C(=O)N[C@@H](CCC(N)=O)C(=O)N[C@@H](CCC(N)=O)C(=O)N[C@@H](Cc3cnc[nH]3)C(N)=O)NC(=O)[C@H](CCCNC(=N)N)NC(=O)[C@H](CCCNC(=N)N)NC(=O)[C@H](C)NC(=O)[C@H](CSSC[C@H](N)C(=O)N[C@@H](CC(N)=O)C(=O)N2)NC1=O` [apamin], the Blood-brain barrier crossing [3] is listed as “cross the blood-brain barrier”.
In the case of `Cl.c1ccc2c(c1)CCC[C@H]2Nc1nc2ccccc2[nH]1` [NS8593, N-[(1R)-1,2,3,4-Tetrahydro-1-naphthalenyl]-1H-benzimidazol-2-amine hydrochloride], the Vestibular syndrome severity (UVN adult female rats [2]; NS8593 30 mg/kg i.p. once a day for 4 days, at day 1 and day 2, p<0.05 vs negative control) was “significant decreased vestibular syndrome”.
